Experimental data reported in ChEMBL document CHEMBL3046689, “Volatile aldehydes are promising broad-spectrum postharvest insecticides” (J Agric Food Chem, 2000).
Activity calls are given as the source filed them. No cut-off for these calls is given here.

Experiments:
[1] = tested on: Lactuca sativa; assay: Phytotoxicity in naked Lactuca sativa (lettuce) assessed as change in visual quality after compound application through two-tier reduced pressure fumigation at 30 mmHg for 0.5 hr and then 760 mmHg for 1.5 hr at 23 +/- 1 degC after 2 hr; assay type: organism-based; settings: in vivo
[2] = tested on: Myzus persicae; assay: Insecticidal activity against Myzus persicae (green peach aphid) placed under third leaf of naked Iceburg lettuce heads and after compound application for 2 hr through two-tier reduced pressure fumigation at 30 mmHg for 0.5 hr and then 760 mmHg for 1.5 hr at 23 +/- 1 degC measured after 24 hr; assay type: functional
[3] = tested on: Persea americana; assay: Phytotoxicity in Persea americana (avocado) assessed as induction of visual damage after compound application for 1 hr through two-tier reduced pressure fumigation at 30 mmHg for 0.5 hr and then 760 mmHg for 1.5 hr at 23 +/- 1 degC; assay type: organism-based; settings: in vivo
[4] = tested on: Lactuca sativa; assay: Phytotoxicity in wrapped Lactuca sativa (lettuce) assessed as induction of visual damage after compound application for 1 hr through two-tier reduced pressure fumigation at 30 mmHg for 0.5 hr and then 760 mmHg for 1.5 hr at 23 +/- 1 degC; assay type: organism-based; settings: in vivo
[5] = tested on: Brassica oleracea var. italica; assay: Phytotoxicity in Brassica oleracea var. italica assessed as induction of visual damage after compound application for 1 hr through two-tier reduced pressure fumigation at 30 mmHg for 0.5 hr and then 760 mmHg for 1.5 hr at 23 +/- 1 degC; assay type: organism-based; settings: in vivo
[6] = tested on: Oryza sativa; assay: Phytotoxicity in Oryza sativa (rice) assessed as induction of olfactory damage after compound application for 1 hr through two-tier reduced pressure fumigation at 30 mmHg for 0.5 hr and then 760 mmHg for 1.5 hr at 23 +/- 1 degC; assay type: organism-based; settings: in vivo
[7] = tested on: Vitis vinifera; assay: (§1) Phytotoxicity in Vitis vinifera assessed as induction of olfactory damage after compound application for 1 hr through two-tier reduced pressure fumigation at 30 mmHg for 0.5 hr and then 760 mmHg for 1.5 hr at 23 +/- 1 degC; assay type: organism-based; settings: in vivo
[8] = tested on: Vitis vinifera; assay: as §1; assay type: organism-based; settings: in vivo; remark: listed apart in the source
[9] = tested on: Malus domestica; assay: Phytotoxicity in Malus x domestica (apple) assessed as induction of olfactory damage after compound application for 1 hr through two-tier reduced pressure fumigation at 30 mmHg for 0.5 hr and then 760 mmHg for 1.5 hr at 23 +/- 1 degC; assay type: organism-based; settings: in vivo
[10] = tested on: Persea americana; assay: Phytotoxicity in Persea americana (avocado) assessed as induction of olfactory damage after compound application for 1 hr through two-tier reduced pressure fumigation at 30 mmHg for 0.5 hr and then 760 mmHg for 1.5 hr at 23 +/- 1 degC; assay type: organism-based; settings: in vivo
[11] = tested on: Tetranychus urticae; assay: Insecticidal activity against Tetranychus urticae (two-spotted spider mite); assay type: functional, organism-based
[12] = tested on: Frankliniella occidentalis; assay: Insecticidal activity against Frankliniella occidentalis (western flower thrips); assay type: functional, organism-based
[13] = tested on: Bemisia; assay: Insecticidal activity against Bemisia sp.; assay type: functional, organism-based
[14] = tested on: Pseudococcus viburni; assay: Insecticidal activity against Pseudococcus viburni; assay type: functional, organism-based
[15] = tested on: Phaseolus vulgaris; assay: PhytoToxicity in Phaseolus vulgaris (beans) assessed as induction of visual damage after compound application for 1 hr through two-tier reduced pressure fumigation at 30 mmHg for 0.5 hr and then 760 mmHg for 1.5 hr at 23 +/- 1 degC; assay type: organism-based; settings: in vivo, other
[16] = tested on: Oryza sativa; assay: Phytotoxicity in Oryza sativa (rice) assessed as induction of visual damage after compound application for 1 hr through two-tier reduced pressure fumigation at 30 mmHg for 0.5 hr and then 760 mmHg for 1.5 hr at 23 +/- 1 degC; assay type: organism-based; settings: in vivo
[17] = tested on: Vitis vinifera; assay: Phytotoxicity in Vitis vinifera assessed as induction of visual damage after compound application for 1 hr through two-tier reduced pressure fumigation at 30 mmHg for 0.5 hr and then 760 mmHg for 1.5 hr at 23 +/- 1 degC; assay type: organism-based; settings: in vivo
[18] = tested on: Malus domestica; assay: Phytotoxicity in Malus x domestica (apple) assessed as induction of visual damage after compound application for 1 hr through two-tier reduced pressure fumigation at 30 mmHg for 0.5 hr and then 760 mmHg for 1.5 hr at 23 +/- 1 degC; assay type: organism-based; settings: in vivo
[19] = tested on: Citrus limon; assay: Phytotoxicity in Citrus limon (lemon) assessed as induction of visual damage after compound application for 1 hr through two-tier reduced pressure fumigation at 30 mmHg for 0.5 hr and then 760 mmHg for 1.5 hr at 23 +/- 1 degC; assay type: organism-based; settings: citrus x limon, in vivo
[20] = tested on: Citrus sinensis; assay: Phytotoxicity in Citrus sinensis (orange) assessed as induction of visual damage after compound application for 1 hr through two-tier reduced pressure fumigation at 30 mmHg for 0.5 hr and then 760 mmHg for 1.5 hr at 23 +/- 1 degC; assay type: organism-based; settings: in vivo
[21] = tested on: Citrus sinensis; assay: Phytotoxicity in Citrus sinensis (orange) assessed as induction of olfactory damage after compound application for 1 hr through two-tier reduced pressure fumigation at 30 mmHg for 0.5 hr and then 760 mmHg for 1.5 hr at 23 +/- 1 degC; assay type: organism-based; settings: in vivo
[22] = tested on: Citrus x paradisi; assay: Phytotoxicity in Citrus x paradisi (grape fruit) assessed as induction of olfactory damage after compound application for 1 hr through two-tier reduced pressure fumigation at 30 mmHg for 0.5 hr and then 760 mmHg for 1.5 hr at 23 +/- 1 degC; assay type: organism-based; settings: in vivo
[23] = tested on: Brassica oleracea var. capitata; assay: Phytotoxicity in Brassica oleracea var. capitata (cabbage) assessed as induction of olfactory damage after compound application for 1 hr through two-tier reduced pressure fumigation at 30 mmHg for 0.5 hr and then 760 mmHg for 1.5 hr at 23 +/- 1 degC; assay type: organism-based; settings: in vivo
[24] = tested on: Brassica oleracea var. italica; assay: Phytotoxicity in Brassica oleracea var. italica assessed as induction of olfactory damage after compound application for 1 hr through two-tier reduced pressure fumigation at 30 mmHg for 0.5 hr and then 760 mmHg for 1.5 hr at 23 +/- 1 degC; assay type: organism-based; settings: in vivo
[25] = tested on: Lactuca sativa; assay: Phytotoxicity in wrapped Lactuca sativa (lettuce) assessed as induction of olfactory damage after compound application for 1 hr through two-tier reduced pressure fumigation at 30 mmHg for 0.5 hr and then 760 mmHg for 1.5 hr at 23 +/- 1 degC; assay type: organism-based; settings: in vivo
[26] = tested on: Lactuca sativa; assay: Phytotoxicity in naked Lactuca sativa (lettuce) assessed as change in visual quality after compound application for 1 hr through two-tier reduced pressure fumigation at 30 mmHg for 0.5 hr and then 760 mmHg for 1.5 hr at 23 +/- 1 degC; assay type: organism-based; settings: in vivo
[27] = tested on: Brassica oleracea var. capitata; assay: Phytotoxicity in Brassica oleracea var. capitata (cabbage) after compound application for 1 hr through two-tier reduced pressure fumigation at 30 mmHg for 0.5 hr and then 760 mmHg for 1.5 hr at 23 +/- 1 degC; assay type: organism-based; settings: in vivo
[28] = tested on: Lactuca sativa; assay: Phytotoxicity in naked Lactuca sativa (lettuce) after compound application for 1 hr through two-tier reduced pressure fumigation at 30 mmHg for 0.5 hr and then 760 mmHg for 1.5 hr at 23 +/- 1 degC; assay type: organism-based; settings: in vivo
[29] = tested on: Myzus persicae; assay: Insecticidal activity against Myzus persicae (green peach aphid) infested wrapped lettuce applied for 1 hr through two-tier reduced pressure fumigation at 30 mmHg for 0.5 hr and then 760 mmHg for 1.5 hr at 23 +/- 1 degC measured 24 hr; assay type: functional, organism-based
[30] = tested on: Myzus persicae; assay: Insecticidal activity against Myzus persicae (green peach aphid) infested naked lettuce applied for 1 hr through two-tier reduced pressure fumigation at 30 mmHg for 0.5 hr and then 760 mmHg for 1.5 hr at 23 +/- 1 degC measured 24 hr; assay type: functional, organism-based

**Q.** For `CCC=O` [PROPIONALDEHYDE], which Activity [1] is on record?
**A.** Toxic

**Q.** What about the CTP [2] of the same compound?
**A.** 304 mg/L.hr

**Q.** And the LD90 [2]?
**A.** 124.5 mg/L

**Q.** What about the Activity [3] of the same compound?
**A.** Non-toxic

**Q.** What about the Activity [4] of the same compound?
**A.** Non-toxic

**Q.** And the Activity [5]?
**A.** Non-toxic

**Q.** And the Activity [6]?
**A.** Non-toxic

**Q.** What about the Activity [7] of the same compound?
**A.** Non-toxic

**Q.** And the Activity [8]?
**A.** Non-toxic

**Q.** And the Activity [9]?
**A.** Non-toxic

**Q.** What about the Activity [10] of the same compound?
**A.** Non-toxic

**Q.** And the Activity [11]?
**A.** inactive

**Q.** What about the Activity [12] of the same compound?
**A.** Active

**Q.** And the Activity [13]?
**A.** Active

**Q.** What about the Activity [14] of the same compound?
**A.** Active

**Q.** And the Activity [15]?
**A.** Non-toxic

**Q.** And the Activity [16]?
**A.** Non-toxic

**Q.** What about the Activity [17] of the same compound?
**A.** Non-toxic

**Q.** What about the Activity [18] of the same compound?
**A.** Non-toxic

**Q.** What about the Activity [19] of the same compound?
**A.** Non-toxic

**Q.** And the Activity [20]?
**A.** Non-toxic

**Q.** What about the Activity [21] of the same compound?
**A.** Non-toxic

**Q.** What about the Activity [22] of the same compound?
**A.** Non-toxic

**Q.** What about the Activity [23] of the same compound?
**A.** Toxic

**Q.** And the Activity [24]?
**A.** Toxic

**Q.** What about the Activity [25] of the same compound?
**A.** Toxic

**Q.** And the Activity [26]?
**A.** Toxic

**Q.** What about the Activity [27] of the same compound?
**A.** Toxic

**Q.** And the Activity [28]?
**A.** Toxic

**Q.** And the Activity [29]?
**A.** Active

**Q.** And the Activity [30]?
**A.** Active
